Reference: US4382089A, “Antibacterial amide compounds, compositions thereof and methods of using them” (Warner-Lambert Company, priority 1982, dated 1983)

What was measured:
Test in all cases: Antibacterial activity in vitro, Minimal Inhibitory Concentration
Assay type in all cases: cell-based
[1] = tested on: E. Coli Brig
Description: (§1) The compounds of the invention are new chemical compounds that are used as pharmacological agents and especially as broad spectrum antibacterial agents. They are active in vitro against strains of both gram-positive and gram-negative bacteria. The activity of the compounds is illustrated by the results shown in the table for certain of the preferred compounds.

[2] = tested on: Staph Aureus UC-76
Description: as §1

[3] = tested on: Pseudo. Aeru UI-18
Description: as §1

[4] = tested on: Serr. Mar. IMM-16
Description: as §1

[5] = tested on: Pseudo. Aeru BRK
Description: as §1

[6] = tested on: E. Coli Vogel
Description: as §1

[7] = tested on: Klebs. Pneu. MGH-2
Description: as §1

[8] = tested on: Entero C. IMM-11
Description: as §1

[9] = tested on: Pseudo. Aeru 28
Description: as §1

[10] = tested on: Prot. Vulg. 1810
Description: as §1

Compound | Minimal Inhibitory Concentration [1] [µg/mL] | Minimal Inhibitory Concentration [2] [µg/mL] | Minimal Inhibitory Concentration [3] | Minimal Inhibitory Concentration [4] [µg/mL] | Minimal Inhibitory Concentration [5] [µg/mL] | Minimal Inhibitory Concentration [6] [µg/mL] | Minimal Inhibitory Concentration [7] [µg/mL] | Minimal Inhibitory Concentration [8] [µg/mL] | Minimal Inhibitory Concentration [9] [µg/mL] | Minimal Inhibitory Concentration [10] [µg/mL]
N-[1,4-Dihydro-4-oxo-7-[[(5-oxo-2-pyrrolidinyl)carbonyl]-amino]-3-quinolinylcarbonyl]amoxicillin | 3.1 | 0.8 | 3.1 µg/mL | 1.6 | 0.4 | 0.4 | 3.1 | 3.1 | 0.8 | 0.8
CC(=O)N1CC(O)CC1C(=O)Nc1ccc2[nH]c(=O)c(C(=O)NC(C(=O)NC3C(=O)N4C3SC(C)(C)C4C(=O)O)c3ccc(O)cc3)cc2c1 (stereo not drawn) [N-[6-[[(1-Acetyl-4-hydroxy-2-pyrrolidinyl)carbonyl]-amino]-1,2-dihydro-2-oxo-3-quinolinylcarbonyl]amoxicillin] | 12.5 | 0.8 | 1.6 µg/mL | 25 | 3.1 | 6.3 | 25 | 6.3 | 1.6 | 3.1
CC(=O)NC(C)C(=O)Nc1ccc2[nH]cc(C(=O)NC(C(=O)NC3C(=O)N4C3SC(C)(C)C4C(=O)O)c3ccc(O)cc3)c(=O)c2c1 (stereo not drawn) [N-[6-[[2-(Acetylamino)-1-oxopropyl]amino]-1,4-dihydro-4-oxo-3-quinolinylcarbonyl]amoxicillin] | 3.1 | 1.6 | 1.6 µg/mL | 3.1 | 1.6 | 0.4 | 6.3 | 3.1 | 0.4 | 0.8
CC1(C)S[C@@H]2[C@H](NC(=O)[C@H](NC(=O)c3cc4cc(NC(=O)NCC(N)=O)ccc4[nH]c3=O)c3ccc(O)cc3)C(=O)N2[C@H]1C(=O)O [N-[3-[1,2-dihydro-2-oxo-6-(5-oxo-2-pyrrolidinyl)amino]-quinolinylcarbonyl]amoxicillin] | – | 1.6 | – | – | 1.6 | – | – | 3.1 | 1.6 | –
CC(=O)N1CC(O)CC1C(=O)Nc1ccc2c(=O)c(C(=O)NC(C(=O)NC3C(=O)N4C3SC(C)(C)C4C(=O)O)c3ccc(O)cc3)c[nH]c2c1 (stereo not drawn) [N-[7-[[(1-Acetyl-4-hydroxy-2-pyrrolidinyl)carbonyl]-amino]-1,4-dihydro-4-oxo-3-quinolinecarbonyl]amoxicillin] | 12.5 | 1.6 | 3.1 µg/mL | 6.3 | 3.1 | 3.1 | 12.5 | 6.3 | 3.1 | 0.8
CC(=O)N1CCCC1C(=O)Nc1ccc2[nH]c(=O)c(C(=O)NC(C(=O)NC3C(=O)N4C3SC(C)(C)C4C(=O)O)c3ccc(O)cc3)cc2c1 (stereo not drawn) [N-[6-[[(1-Acetyl-2-pyrrolidinyl)carbonyl]amino]-1,2-dihydro-2-oxo-3-quinolinylcarbonyl]amoxicillin] | 3.1 | 0.8 | 1.6 µg/mL | 12.5 | 1.6 | 0.2 | 25 | 3.1 | 1.6 | 0.8
CC(=O)N1CCCC1C(=O)Nc1ccc2[nH]cc(C(=O)NC(C(=O)NC3C(=O)N4C3SC(C)(C)C4C(=O)O)c3ccc(O)cc3)c(=O)c2c1 (stereo not drawn) [N-[6-[[(1-Acetyl-2-pyrrolidinyl)carbonyl]amino]-1,4-dihydro-4-oxo-3-quinolinylcarbonyl]amoxicillin] | 6.3 | 3.1 | 3.1 µg/mL | 6.3 | 3.1 | 0.2 | 6.3 | 6.3 | 3.1 | 0.8
CC1(C)SC2C(NC(=O)C(NC(=O)c3c[nH]c4ccc(NC(=O)C5CCC(=O)N5)cc4c3=O)c3ccc(O)cc3)C(=O)N2C1C(=O)O (stereo not drawn) [N-[1,4-Dihydro-4-oxo-6[[(5-oxo-2-pyrrolidinyl)carbonyl]-amino]-3-quinolinylcarbonyl]amoxicillin] | 6.3 | 1.6 | 1.6 µg/mL | 6.3 | 3.1 | 1.6 | 12.5 | 3.1 | 3.1 | 1.6
CC(=O)NC(C)C(=O)Nc1ccc2c(=O)c(C(=O)NC(C(=O)NC3C(=O)N4C3SC(C)(C)C4C(=O)O)c3ccc(O)cc3)c[nH]c2c1 (stereo not drawn) [N-[7-[[2-(Acetylamino)-1-oxopropyl]amino]-1,4-dihydro-4-oxo-3-quinolinylcarbonyl]amoxicillin] | 3.1 | 0.8 | .6 µg/mL | 6.3 | 1.6 | 0.2 | 6.3 | 3.1 | 1.6 | 0.8
CC1(C)SC2C(NC(=O)C(NC(=O)c3c[nH]c4c(NC(=O)C5CCC(=O)N5)cccc4c3=O)c3ccc(O)cc3)C(=O)N2C1C(=O)O (stereo not drawn) [N-[1,4-Dihydro-4-oxo-8-[[(5-oxo-2-pyrrolidinyl)carbonyl]-amino]-3-quinolinylcarbonyl]amoxicillin] | 6.3 | 1.6 | 3.1 µg/mL | 12.5 | 1.6 | 3.1 | 12.5 | 6.3 | 0.8 | 3.1
N-[(-[[2-(Acetylamino)-1-oxopropl]amino]-1,4-dihydro-4-oxo-3-quinolinylcarbonyl]amoxicillin | 12.5 | 1.6 | .1 µg/mL | 12.5 | 3.1 | 3.1 | 12.5 | 12.5 | 0.8 | 3.1
CC(=O)NC(C)C(=O)Nc1ccc2[nH]c(=O)c(C(=O)NC(C(=O)NC3C(=O)N4C3SC(C)(C)C4C(=O)O)c3ccc(O)cc3)cc2c1 (stereo not drawn) [N-[6-[[(2-Acetylamino)-1-oxopropyl]amino]-1,2-dihydro-2-oxo-3-quinolinylcarbonyl]amoxicillin] | 6.3 | 1.6 | 1.6 µg/mL | 12.5 | 1.6 | 1.6 | 12.5 | 6.3 | 1.6 | 3.1
